Measured values as given in patent publication US12594268B2, “Methods of treating Fabry disease in patients having a mutation in the GLA gene” (Amicus Therapeutics, Inc., priority 2018, dated 2026).
Changes are numbered by the printed parent chain.

Experiments:
Format in all cases: cell-based
α-Gal A mutant form D33H = biological target: T1, α-Gal A mutant form D33H (Homo sapiens, UniProt P06280, D33H); test: α-Gal A activity in lysates of transfected HEK-293 cells, D33H
T1 construct: expressed in transfected cells; host or cells: HEK-293
T1 sequence (P06280 32-429 D33H): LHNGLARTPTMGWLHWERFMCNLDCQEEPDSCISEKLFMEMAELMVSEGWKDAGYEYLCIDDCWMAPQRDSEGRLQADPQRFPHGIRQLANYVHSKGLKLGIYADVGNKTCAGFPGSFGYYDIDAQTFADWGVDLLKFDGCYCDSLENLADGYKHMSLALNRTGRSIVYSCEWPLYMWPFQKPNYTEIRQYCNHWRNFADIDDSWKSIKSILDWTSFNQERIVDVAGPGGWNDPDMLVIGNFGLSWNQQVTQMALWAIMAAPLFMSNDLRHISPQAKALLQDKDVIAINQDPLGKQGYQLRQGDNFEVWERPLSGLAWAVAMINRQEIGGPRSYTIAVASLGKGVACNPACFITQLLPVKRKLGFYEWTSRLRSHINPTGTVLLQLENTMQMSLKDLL
Procedure: (§1) Baseline and 10 μM migalastat α-Gal A activity: Differences in the α-Gal A activity between lysates incubated in the absence and presence of 10 μM migalastat were determined using a one-tailed, Mann Whitney U test; an increase at 10 μM migalastat with a p<0.05 was considered significant.
(§2) 10 μM migalastat α-Gal A activity (% WT)=(α-Gal A activity in mutant transfected cell lysates incubated with 10 μM migalastat÷α-Gal A activity in wild-type transfected cell lysates without migalastat)*100.
(§3) Absolute increase (% WT)=is the 10 μM migalastat α-Gal A activity (% WT) minus the baseline α-Gal A activity (% WT).
(§4) Relative increase is the 10 μM migalastat α-Gal A activity in mutant transfected cell lysates÷baseline α-Gal A activity in mutant transfected cell lysates incubated without migalastat.

α-Gal A mutant form G35A = biological target: T2, α-Gal A mutant form G35A (Homo sapiens, UniProt P06280, G35A); test: α-Gal A activity in lysates of transfected HEK-293 cells, G35A
T2 construct: expressed in transfected cells; host or cells: HEK-293
T2 sequence (P06280 32-429 G35A): T1 sequence (P06280 32-429 D33H) with H2D, G4A
Procedure: as §1, §2, §3, §4

[1] = biological target: T3, α-Gal A mutant form K391E (Homo sapiens, UniProt P06280, K391E); test: α-Gal A activity in lysates of transfected HEK-293 cells, K391E
T3 construct: expressed in transfected cells; host or cells: HEK-293
T3 sequence (P06280 32-429 K391E): T1 sequence (P06280 32-429 D33H) with H2D, K360E
Procedure: as §1, §2, §3, §4

[2] = biological target: T4, α-Gal A mutant form Y152D (Homo sapiens, UniProt P06280, Y152D); test: α-Gal A activity in lysates of transfected HEK-293 cells, Y152D
T4 construct: expressed in transfected cells; host or cells: HEK-293
T4 sequence (P06280 32-429 Y152D): T1 sequence (P06280 32-429 D33H) with H2D, Y121D
Procedure: as §1, §2, §3, §4

[3] = biological target: T5, α-Gal A mutant form P380L (Homo sapiens, UniProt P06280, P380L); test: α-Gal A activity in lysates of transfected HEK-293 cells, P380L
T5 construct: expressed in transfected cells; host or cells: HEK-293
T5 sequence (P06280 32-429 P380L): T1 sequence (P06280 32-429 D33H) with H2D, P349L
Procedure: as §1, §2, §3, §4

[4] = 10 μM migalastat minus baseline
[5] = 10 μM migalastat ÷ baseline activity
[6] = HEK-293 lysates, 10 nM migalastat as printed, 5 days, mean ± SEM
[7] = HEK-293 lysates, 10 μM migalastat, 5 days, mean ± SEM

Absolute increase (% WT) (α-Gal A mutant form D33H; [4]): 32.7 % WT | Relative increase (α-Gal A mutant form D33H; [5]): 1.93 | 10 nM migalastat α-Gal A activity (α-Gal A mutant form D33H; [6]): 24908 ± 1775 nmol/mg/h | 10 μM migalastat α-Gal A activity (% WT) (α-Gal A mutant form D33H; [7]): 68.8 ± 4.3 % WT | Absolute increase (% WT) (α-Gal A mutant form G35A; [4]): 31.0 % WT | Relative increase (α-Gal A mutant form G35A; [5]): 1.61 | 10 nM migalastat α-Gal A activity (α-Gal A mutant form G35A; [6]): 31694 ± 1949 nmol/mg/h | 10 μM migalastat α-Gal A activity (% WT) (α-Gal A mutant form G35A; [7]): 82.1 ±5.6 % WT | Absolute increase (% WT) [1, 4]: 20.0 % WT | Relative increase [1, 5]: 2.03 | 10 μM migalastat α-Gal A activity [1, 7]: 15979 ± 1367 nmol/mg/h | 10 μM migalastat α-Gal A activity (% WT) [1, 7]: 40.4 ± 2.9 % WT | Absolute increase (% WT) [2, 4]: 10.7 % WT | Relative increase [2, 5]: 2.75 | 10 μM migalastat α-Gal A activity [2, 7]: 6594 ± 294 nmol/mg/h | 10 μM migalastat α-Gal A activity (% WT) [2, 7]: 16.7 ± 1.1 % WT | Absolute increase (% WT) [3, 4]: 7.1 % WT | Relative increase [3, 5]: 2.98 | 10 μM migalastat α-Gal A activity [3, 7]: 4248 ± 369 nmol/mg/h | 10 μM migalastat α-Gal A activity (% WT) [3, 7]: 10.6 ± 1.0 % WT
SMILES: OC[C@H]1NC[C@H](O)[C@@H](O)[C@H]1O [migalastat, (2R,3S,4R,5S)-2-(hydroxymethyl) piperdine-3,4,5-triol]
